This passage reports inhibition, IC50 and pIC50 results from ChEMBL document CHEMBL4418305, “Alkyl-, acyl-, urea-, and aza-uracil sulfide:quinone oxidoreductase inhibitors” (2017).

Broadly, the inhibition is the drop in the measured response relative to a control, in per cent. A higher inhibition goes with a response far below the control. As a reminder, the IC50 is the concentration at which inhibition is half-maximal. Usually pIC50 stands for −log10 of the IC50, conventionally taken in molar units. Lower therefore signals a large IC50.

For test [1], the target named is T1, Sulfide:quinone oxidoreductase, mitochondrial (Homo sapiens, UniProt Q9Y6N5). In words: Inhibition of SQOR (unknown origin) at 10 uM using sodium sulfide, sodium sulfite and coenzyme Q1 by UV absorbance method relative to control.
Target sequence in this assay (Q9Y6N5 whole entry, looked up): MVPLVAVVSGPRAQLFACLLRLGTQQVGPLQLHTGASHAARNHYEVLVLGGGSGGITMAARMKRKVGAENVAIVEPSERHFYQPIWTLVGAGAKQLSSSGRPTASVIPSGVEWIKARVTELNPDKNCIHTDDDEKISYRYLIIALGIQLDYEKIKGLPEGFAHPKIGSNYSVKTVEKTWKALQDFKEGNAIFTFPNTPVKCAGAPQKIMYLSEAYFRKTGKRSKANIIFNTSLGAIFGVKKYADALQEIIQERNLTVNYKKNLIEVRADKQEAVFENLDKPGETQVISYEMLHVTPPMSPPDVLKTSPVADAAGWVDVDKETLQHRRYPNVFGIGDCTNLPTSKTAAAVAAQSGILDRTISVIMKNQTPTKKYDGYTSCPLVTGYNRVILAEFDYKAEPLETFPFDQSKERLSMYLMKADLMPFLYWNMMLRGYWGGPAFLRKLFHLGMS
Test [2] concerns the target T1, Sulfide:quinone oxidoreductase, mitochondrial. In words: Inhibition of SQOR (unknown origin) using sodium sulfide, sodium sulfite and coenzyme Q1 by UV absorbance method.
Target sequence in this assay (Q9Y6N5 whole entry): as the sequence (Q9Y6N5 whole entry, looked up) above

In test [1], `CCCCCCCC(=O)n1cc(Cl)c(=O)[nH]c1=O` gave an inhibition of 10 to 50%.
Regarding `CCCCCn1c(Cl)cc(=O)n(CCCCC)c1=O`, in test [1], the inhibition was 10 to 50%.
For the compound `CCCCCCCC(=O)n1nc(Br)c(=O)[nH]c1=O`, the IC50 in test [2] was < 20 µM. In addition, the inhibition in test [1] is > 50%.
The matching figures for `CCCCCCNC(=O)n1cc(F)c(=O)[nH]c1=O` [CARMOFUR]: 20 to 100 µM and 10 to 50%.
The matching figures for `O=C(CC1CCCCC1)n1nc(Br)c(=O)[nH]c1=O`: < 20 µM and > 50%.
Turning to `CCCCCCCC(=O)n1nc(C)c(=O)[nH]c1=O`, the IC50 in test [2] lay in the range of 20 to 100 µM. The same compound came in with an inhibition in test [1] of 10 to 50%.
For `CCCCCCCCNC(=O)n1cc(Cl)c(=O)[nH]c1=O`, in that order: < 20 µM and > 50%.
Compound `O=C(c1ccccc1)n1nc(Br)c(=O)[nH]c1=O` registered an inhibition in test [1] of 10 to 50%.
In the case of `CCCCCCCC(=O)n1c(Cl)cc(=O)[nH]c1=O`, in test [2], the IC50 is < 20 µM. In test [1], the inhibition was 10 to 50%.
`CCCNC(=O)n1cc(F)c(=O)[nH]c1=O` returned an inhibition in test [1] of 6%.
With `O=c1c(F)cn(CCC2CCCCC2)c(=O)n1CCC1CCCCC1`, the inhibition in test [1] was in the range of 10 to 50%.
On the same count and under the same terms, the figure for `CCCCCCCCCCCC(=O)n1nc(Br)c(=O)[nH]c1=O` is > 50%.
As to `O=C(CCC1CCCC1)n1nc(Br)c(=O)[nH]c1=O`, in test [2], the IC50 was < 20 µM. For the same compound, in test [1], the inhibition is > 50%.
The matching figures for `CCCCCCCC(=O)n1cc(Br)c(=O)[nH]c1=O`: 20 to 100 µM and 10 to 50%.
Take `CCCCCCn1cc(F)c(=O)n(CCCCCC)c1=O`: in test [2], the IC50 is < 20 µM. Also, in test [1], the inhibition was > 50%.
For `CCCCCCCn1cc(F)c(=O)n(CCCCCCC)c1=O`, in that order: < 20 µM and > 50%.
In turn, AUROTHIOGLUCOSE [listing 1 of 2 here] registered an inhibition in test [1] of 95 to 100%.
Take `O=C(NCCc1ccccc1)n1cc(F)c(=O)[nH]c1=O`: the inhibition in test [1] was 7%.
Regarding `O=C(C1CCCCC1)n1nc(Br)c(=O)[nH]c1=O`, the IC50 in test [2] was < 20 µM. The inhibition in test [1] is > 50%.
For `CCCCCC(=O)n1nc(Br)c(=O)[nH]c1=O`, in that order: < 20 µM and 10 to 50%.
With `CCCCCn1cc(F)c(=O)n(CCCCC)c1=O`, in test [2], the IC50 is < 20 µM. In test [1], the inhibition was > 50%.
Consider AUROTHIOGLUCOSE [listing 2 of 2 here], for which, in test [2], the IC50 lay in the range of 0.925 to 0.93 µM and the pIC50 is reported as 6.034.
With `CCCCCCCCCC(=O)n1nc(Br)c(=O)[nH]c1=O`, the IC50 in test [2] fell in the range of 100 to 500 µM. In test [1], the inhibition was > 50%.
For `CCCCCn1c(C)c(F)c(=O)n(CCCCC)c1=O`, in that order: < 20 µM and > 50%.
As for `CCCCCCCC(=O)n1c(I)cc(=O)[nH]c1=O`, in test [2], the IC50 is < 20 µM. The inhibition in test [1] is 10 to 50%.
For `CCCCCCCCNC(=O)n1cc(F)c(=O)[nH]c1=O`, in that order: < 20 µM and 10 to 50%.
As to `CCCCCCCC(=O)n1cc(F)c(=O)[nH]c1=O`, in test [1], the inhibition worked out at 3%.
For `O=C(NCc1ccccc1)n1cc(F)c(=O)[nH]c1=O`, the inhibition in test [1] was in the range of 10 to 50%.
As for `CCCCCCCC(=O)n1c(C)c(Br)c(=O)[nH]c1=O`, in test [2], the IC50 is < 20 µM. In test [1], this compound yielded an inhibition of 10 to 50%.
Take `CCCCCCCCCCCCCC(=O)n1nc(Br)c(=O)[nH]c1=O`: the inhibition in test [1] was > 50%.
For the compound `CCCCCCCCn1c(C)c(F)c(=O)n(CCCCCCCC)c1=O`, in test [2], the IC50 was < 20 µM. The same compound displayed an inhibition in test [1] of 10 to 50%.
In turn, `CC(C)CCCn1cc(F)c(=O)n(CCCC(C)C)c1=O` displayed an inhibition in test [1] of 10 to 50%.
On the same count and under the same terms, the result for `CCCCCCC(=O)n1cc(F)c(=O)n(C)c1=O` reads 10 to 50%.
As for `CCCCCCCCn1cc(F)c(=O)n(CCCCCCCC)c1=O`, the IC50 in test [2] was < 20 µM. Further, the inhibition in test [1] is 10 to 50%.
On to `CC(C)C(=O)n1nc(Br)c(=O)[nH]c1=O`, for which the inhibition in test [1] fell in the range of 10 to 50%.
Regarding `O=c1c(F)cn(CCc2ccccc2)c(=O)n1CCc1ccccc1`, in test [1], the inhibition lay in the range of 10 to 50%.
